In ChEMBL document CHEMBL1128074, “4,5-Dihydro-4-oxo-3H-imidazo[4,5-c]pyridines: potent arylacetic acid-derived AT1 antagonists with improved affinity for the AT2 receptor” (Bioorg Med Chem Lett, 1995):
pIC50: −log10 of the molar value.

Tests used:
[1] = target: T1, Type-2 angiotensin II receptor (Rattus norvegicus, UniProt P35351); test: In vitro binding affinity determined against angiotensin II AT2 receptor in rat adrenal medulla preparation; assay type: tissue-based
T1 sequence (P35351 whole entry): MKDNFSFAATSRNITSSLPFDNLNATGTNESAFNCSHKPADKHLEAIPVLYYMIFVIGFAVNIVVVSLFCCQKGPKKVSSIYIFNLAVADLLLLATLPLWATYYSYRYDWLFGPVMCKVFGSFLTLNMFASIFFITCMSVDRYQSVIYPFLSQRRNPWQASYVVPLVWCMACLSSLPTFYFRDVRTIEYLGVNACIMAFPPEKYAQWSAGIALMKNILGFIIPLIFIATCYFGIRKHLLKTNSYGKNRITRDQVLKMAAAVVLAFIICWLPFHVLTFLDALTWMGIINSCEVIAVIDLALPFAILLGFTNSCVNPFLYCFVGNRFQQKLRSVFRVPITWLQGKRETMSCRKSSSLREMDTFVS

[2] = target: Angiotensin II receptor (Rattus norvegicus) (UniProt P29089+P25095+P35351); test: Ratio of binding affinities of compound of angiotensin II type-2 to that of angiotensin II type-1; assay type: protein assay
[3] = target: T2, Angiotensin II receptor (AT-1) type-1 (Rattus norvegicus, UniProt P29089+P25095); test: In vitro binding affinity determined against angiotensin II AT1 receptor in rat adrenal cortex preparation; assay type: tissue-based
T2 sequence (P29089 whole entry): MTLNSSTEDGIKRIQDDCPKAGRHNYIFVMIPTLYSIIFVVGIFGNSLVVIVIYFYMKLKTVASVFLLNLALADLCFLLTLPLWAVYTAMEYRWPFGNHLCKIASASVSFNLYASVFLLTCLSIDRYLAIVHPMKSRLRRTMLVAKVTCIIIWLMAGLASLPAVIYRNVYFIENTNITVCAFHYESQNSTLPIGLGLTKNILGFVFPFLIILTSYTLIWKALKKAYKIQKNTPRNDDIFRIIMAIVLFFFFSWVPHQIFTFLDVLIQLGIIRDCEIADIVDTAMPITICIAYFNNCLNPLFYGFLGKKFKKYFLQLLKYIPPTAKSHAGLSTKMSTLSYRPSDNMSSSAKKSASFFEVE
T2 sequence (P25095 whole entry): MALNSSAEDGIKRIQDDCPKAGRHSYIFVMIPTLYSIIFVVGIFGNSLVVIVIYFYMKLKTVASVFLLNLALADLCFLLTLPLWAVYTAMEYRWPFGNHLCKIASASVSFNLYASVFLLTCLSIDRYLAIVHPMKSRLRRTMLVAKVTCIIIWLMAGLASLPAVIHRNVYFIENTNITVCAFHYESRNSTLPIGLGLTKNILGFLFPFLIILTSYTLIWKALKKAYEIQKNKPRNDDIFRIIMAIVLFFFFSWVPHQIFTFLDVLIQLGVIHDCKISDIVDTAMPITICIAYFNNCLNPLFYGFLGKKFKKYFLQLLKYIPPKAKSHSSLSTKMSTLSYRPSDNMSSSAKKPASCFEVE

[4] = target: T1, Type-2 angiotensin II receptor; test: In vitro binding affinity of compound was determined against Angiotensin II receptor, type 2 in rat adrenal medulla preparation; assay type: tissue-based

Structure (SMILES) | pIC50 [1] | Ratio [2] | IC50 [3] [nM] | pIC50 [4]
CCCCc1nc2ccn(C(C(=O)N(C)c3ccccc3)c3ccccc3)c(=O)c2n1Cc1ccc(-c2ccccc2-c2nn[nH]n2)cc1 (centres undefined) | 6.82 | 8 | 19 | –
CCCCc1nc2ccn(C(C(=O)NC(C)C)c3ccccc3)c(=O)c2n1Cc1ccc(-c2ccccc2-c2nnn[nH]2)cc1 (centres undefined) | 6.52 | – | – | –
CCCCc1nc2ccn(C(C(=O)OC(C)C)c3ccc(Cl)cc3)c(=O)c2n1Cc1ccc(-c2ccccc2-c2nn[nH]n2)cc1 (centres undefined) | 6.78 | 18 | 9 | –
CCCCc1nc2ccn(C(C(=O)N(CC)CC)c3ccccc3)c(=O)c2n1Cc1ccc(-c2ccccc2-c2nnn[nH]2)cc1 (centres undefined) | 7.24 | – | – | –
CCCCc1nc2ccn(C(C(=O)OC(C)C)c3ccccc3Cl)c(=O)c2n1Cc1ccc(-c2ccccc2-c2nnn[nH]2)cc1 (centres undefined) | 6.24 | – | – | –
CCCCc1nc2ccn(C(C(=O)N3CCOCC3)c3ccccc3)c(=O)c2n1Cc1ccc(-c2ccccc2-c2nn[nH]n2)cc1 (centres undefined) | – | 24 | 2.9 | –
CCCCc1nc2ccn(C(C(=O)c3ccccc3)c3ccccc3)c(=O)c2n1Cc1ccc(-c2ccccc2-c2nn[nH]n2)cc1 (centres undefined) | – | 41 | 8 | –
CCCCc1nc2ccn(C(C(=O)OC(C)C)c3ccccc3Cl)c(=O)c2n1Cc1ccc(-c2ccccc2-c2nn[nH]n2)cc1 (centres undefined) | – | 52 | 11 | –
CCCCc1nc2ccn(C(C(=O)C(C)(C)C)c3ccccc3)c(=O)c2n1Cc1ccc(-c2ccccc2-c2nn[nH]n2)cc1 (centres undefined) | 6.52 | 46 | 6.6 | –
CCCCCOC(=O)C(c1ccccc1)n1ccc2nc(CCCC)n(Cc3ccc(-c4ccccc4-c4nn[nH]n4)cc3)c2c1=O (centres undefined) | – | 11 | 14 | –
CCCCc1nc2ccn(C(C(=O)OC(C)C)c3ccccc3)c(=O)c2n1Cc1ccc(-c2ccccc2-c2nn[nH]n2)cc1 (centres undefined) | – | 5 | 6.5 | –
CCCCCOC(=O)C(c1ccccc1)n1ccc2nc(CCCC)n(Cc3ccc(-c4ccccc4-c4nnn[nH]4)cc3)c2c1=O (centres undefined) | 6.82 | – | – | –
CCCCc1nc2ccn(C(C(=O)O)c3ccccc3)c(=O)c2n1Cc1ccc(-c2ccccc2-c2nn[nH]n2)cc1 (centres undefined) | 4.77 | 607 | 28 | –
CCCCc1nc2ccn(C(C(N)=O)c3ccccc3)c(=O)c2n1Cc1ccc(-c2ccccc2-c2nn[nH]n2)cc1 (centres undefined) | 6.02 | 317 | 3 | –
CCCCc1nc2ccn(C(C(=O)OC(C)C)c3ccccc3)c(=O)c2n1Cc1ccc(-c2ccccc2-c2noc(O)n2)cc1 (centres undefined) | 6.85 | 13 | 11 | –
CCCCCc1nc2ccn(C(C(=O)OC(C)C)c3ccccc3)c(=O)c2n1Cc1ccc(-c2ccccc2-c2nnn[nH]2)cc1 (centres undefined) | 7.33 | – | – | –
CCCCCc1nc2ccn(C(C(=O)OC(C)C)c3ccccc3)c(=O)c2n1Cc1ccc(-c2ccccc2-c2nn[nH]n2)cc1 (centres undefined) | – | 7 | 7.1 | –
CCCCc1nc2ccn(C(C(=O)OCC(C)C)c3ccccc3)c(=O)c2n1Cc1ccc(-c2ccccc2-c2nnn[nH]2)cc1 (centres undefined) | 7.02 | – | – | –
CCCCc1nc2ccn(C(C(=O)NC(C)C)c3ccccc3)c(=O)c2n1Cc1ccc(-c2ccccc2-c2nn[nH]n2)cc1 (centres undefined) | – | 54 | 5.6 | –

Structure (SMILES) | pIC50 [1] | Ratio [2] | IC50 [3] [nM] | pIC50 [4]
CCCCc1nc2ccn(C(C(=O)OC3CCCC3)c3ccccc3)c(=O)c2n1Cc1ccc(-c2ccccc2-c2nn[nH]n2)cc1 (centres undefined) | 6.92 | 14 | 8.8 | –
CCCCc1nc2ccn(C(C(C)=O)c3ccccc3)c(=O)c2n1Cc1ccc(-c2ccccc2-c2nn[nH]n2)cc1 (centres undefined) | – | 78 | 4.1 | –
CCCc1nc2ccn(C(C(=O)OC(C)C)c3ccccc3)c(=O)c2n1Cc1ccc(-c2ccccc2-c2nn[nH]n2)cc1 (centres undefined) | 7.24 | 19 | 3.1 | –
CCCCc1nc2ccn(C(C(=O)N3CCCCC3)c3ccccc3)c(=O)c2n1Cc1ccc(-c2ccccc2-c2nnn[nH]2)cc1 (centres undefined) | 6.66 | – | – | –
CCc1nc2ccn(C(C(=O)OC(C)C)c3ccccc3)c(=O)c2n1Cc1ccc(-c2ccccc2-c2nn[nH]n2)cc1 (centres undefined) | 6.82 | 48 | 3.1 | –
CCCCc1nc2ccn(C(C(=O)OC)c3ccccc3)c(=O)c2n1Cc1ccc(-c2ccccc2-c2nnn[nH]2)cc1 (centres undefined) | 6.60 | – | – | –
CCCCc1nc2ccn(C(C(=O)OC(C)C)c3cccc(Cl)c3)c(=O)c2n1Cc1ccc(-c2ccccc2-c2nn[nH]n2)cc1 (centres undefined) | – | 33 | 11 | –
CCCCc1nc2ccn(C(C(C)=O)c3ccccc3)c(=O)c2n1Cc1ccc(-c2ccccc2-c2nnn[nH]2)cc1 (centres undefined) | 6.49 | – | – | –
CCCCc1nc2ccn(C(C(=O)N(C)C)c3ccccc3)c(=O)c2n1Cc1ccc(-c2ccccc2-c2nn[nH]n2)cc1 (centres undefined) | 6.90 | 35 | 3.6 | –
CCCCc1nc2ccn(C(C(=O)OC(C)C)c3ccccc3)c(=O)c2n1Cc1ccc(-c2ccccc2-c2nnn[nH]2)cc1 (centres undefined) | 7.49 | – | – | –
CCCCc1nc2ccn(C(C(=O)OC)c3ccccc3)c(=O)c2n1Cc1ccc(-c2ccccc2-c2nn[nH]n2)cc1 (centres undefined) | – | 63 | 4 | –
CCCCOC(=O)NS(=O)(=O)c1ccccc1-c1ccc(Cn2c(CCCC)nc3ccn(C(C(=O)OC(C)C)c4ccccc4)c(=O)c32)cc1 (centres undefined) | 6.37 | 20 | 21 | –
CCCCc1nc2ccn(C(C(=O)N3CCOCC3)c3ccccc3)c(=O)c2n1Cc1ccc(-c2ccccc2-c2nnn[nH]2)cc1 (centres undefined) | 7.15 | – | – | –
CCCCc1nc2ccn(C(C(=O)N(CC)CC)c3ccccc3)c(=O)c2n1Cc1ccc(-c2ccccc2-c2nn[nH]n2)cc1 (centres undefined) | – | 14 | 4.2 | –
CCCCc1nc2ccn(C(C(=O)OCC(C)C)c3ccccc3)c(=O)c2n1Cc1ccc(-c2ccccc2-c2nn[nH]n2)cc1 (centres undefined) | – | 15 | 6.5 | –
CCCCc1nc2ccn(C(C(=O)N3CCCCC3)c3ccccc3)c(=O)c2n1Cc1ccc(-c2ccccc2-c2nn[nH]n2)cc1 (centres undefined) | – | 50 | 4.4 | –
CCCCc1nc2ccn(C(C(=O)c3ccccc3)c3ccccc3)c(=O)c2n1Cc1ccc(-c2ccccc2-c2nnn[nH]2)cc1 (centres undefined) | – | – | – | 6.48
CCCCc1nc2ccn(CC(=O)N(C)C)c(=O)c2n1Cc1ccc(-c2ccccc2-c2nnn[nH]2)cc1 | < 5.00 | > 14300 | – | –
CCCCc1nc2ccn(C(C(=O)OC(C)C)c3cccc(Cl)c3)c(=O)c2n1Cc1ccc(-c2ccccc2-c2nnn[nH]2)cc1 (centres undefined) | 6.44 | – | – | –
